Here are results for 73 compounds from ChEMBL document CHEMBL5728837, “Non-fused tricyclic compounds” (2021).

This experiment in a line: YAP Reporter Assay: HEK293T cells stably transfected with 8XTBD luciferase reporter and pRLTK in 384-well plates were treated with the test compounds, starting from 3 μM (final concentration in assay plate), 1:3 dilution, and 10 points in quadruplicates. Post 24-hr incubation with compounds at 37° C. and 5% CO2, cells were lysed and 8XTBD-driven firefly luciferase and control TK-driven renilla luciferase activities were measured using Promega Dual-Luciferase Reporter Assay System.Reagents: The reagents used for this study are: DMEM: Invitrogen #11960077, Dual-Glo Luciferase Assay System: Promega-E2980, Puromycin Dihydrochloride: Invitrogen-A1113803, 384-well plate: PerkinElmer-6007480, L-GLUTAMINE: Invitrogen-25030164, Hygromycin B: Invitrogen-10687010, and Penicillin-Streptomycin: Merk-TMS-AB2-CMedia: The media used for this assay were: Culture Medium: DMEM+1 ug/mL puromycin+200 ug/mL hygromycin (with 10% FBS+1 mM L-glutamine); and Assay Medium: DMEM (with 10% FBS+1 mM L-glutamine+1× P/S).Cell Plating: The appropriate media was warmed at 37° C. by water bath: Culture Medium, Assay Medium, 1*D-PBS, 0.05% trypsin-EDTA. The cells were trypsinized after removing all media, then washed with 1*sterile D-PBS and then with 2 ml 0.05% trypsin-EDTA. The cells were then incubated at RT for one minute. Then 10 ml/75 cm2 flask Assay Medium was added to each flask. Using a 10 ml pipette, the cells were then gently resuspended in the media, until the clumps completely disappeared. The cells were then transferred into 50 ml centrifuge tubes and were centrifuged at 800 rpm for 5 mins. The medium was removed and the cells were resuspended with Assay Medium. An aliquot of cells was used to count the cell density (cells/nil). The cell suspension was then diluted with Assay Medium to a concentration of 6×10^4 cells/ml. 50 ul cells suspension was then plated to 384-well plate (PerkinElmer-6007480), 3×10^3 cells/well and the cells were incubated in an incubator at 37° C., 5% CO2.Compound Treatment: In the afternoon (incubation of the plate with 3-4 hrs), the test compounds were added by Echo, starting from 3 uM (final concentration in the assay plate), 1:3 dilution, 10 points, quadruplicates. The plate was placed at 37° C., 5% CO2 incubator for 24 hrs.Detection: The Dual-Glo Luciferase Reagent was prepared by transferring the contents of one bottle of Dual-Glo Luciferase Buffer to one bottle of Dual-Glo Luciferase Substrate to create the Dual-Glo Luciferase Reagent. Mixing was performed by inversion until the substrate was thoroughly dissolved. After mixing, the reagent was aliquoted into 15 ml tubes. In the afternoon (24 hrs post compound treatment), the DMEM+ medium in the 384 well plates were aspirated by Microplate Washer.Measuring firefly luciferase activity: 20 ul Dual-Glo Luciferase Reagent was added to the 384-well plates. The plates were protected from light to prevent interference with the assay. The plates were shaken for 1 min followed centrifuging plates at 1000 rpm for 30 seconds. After waiting at least 10 minutes, the firefly luminescence was measured by Envision.Measuring renilla luciferase activity: 20 ul Stop-Glo Reagent was added to the 384-well plates. The plates were shaken for lmin and then centrifuged at 1000 rpm for 30 seconds. After waiting at least 10 minutes, the renilla luminescence was measured by Envision. The note with it: HEK-293T, 24 h. On the technique in general: A reporter such as luciferase makes a cellular process visible.
In the case of `C[C@@H](O)[C@H](C)n1nnc(-c2ccccc2Nc2ccc(C(F)(F)F)cc2)n1`, the IC50 is < 0.1 µM.
In the case of `CNCCn1nnc(-c2ccccc2Nc2ccc(C(F)(F)F)cc2)n1`, the IC50 result is “in the range around 0.55 µM”.
Take `Cn1nc(-c2ccccc2Nc2ccc(C(F)(F)F)cc2)nc1CCO`: the IC50 entry was “in the range around 3 µM”.
`FC(F)(F)OCCn1nnc(-c2ccccc2Nc2ccc(C(F)(F)F)cc2)n1`: the IC50 entry was “in the range around 0.55 µM”.
As to `O[C@H]1CNC[C@@H]1n1nnc(-c2ccccc2Nc2ccc(C(F)(F)F)cc2)n1`, the IC50 result was “in the range around 0.55 µM”.
Take `C[C@H](O)[C@H](C)n1nnc(-c2ccccc2Nc2ccc(C(F)(F)F)cc2)n1`: the concentration for half-maximal inhibition (IC50) is < 0.1 µM.
Next, `OC1(Cn2nnc(-c3ccccc3Nc3ccc(C(F)(F)F)cc3)n2)COC1`: < 0.1 µM; `CC(C)(C)OC(=O)N1CCCC(O)(Cn2nnc(-c3ccccc3Nc3ccc(C(F)(F)F)cc3)n2)C1` (stereo not drawn): “in the range around 3 µM”; `FC(F)OCCn1nnc(-c2ccccc2Nc2ccc(C(F)(F)F)cc2)n1`: “in the range around 0.55 µM”.
For the compound `OC1(Cn2nnc(-c3ccccc3Nc3ccc(C(F)(F)F)cc3)n2)CSC1`, the IC50 is < 0.1 µM.
Next, `FC(F)(F)c1ccc(Nc2ccccc2-c2nnn(C3CCNC3)n2)cc1` (stereo not drawn): “in the range around 0.55 µM”; `OCCn1nnc(-c2c(F)cccc2Nc2ccc(C(F)(F)F)cc2)n1`: < 0.1 µM.
For `COc1ccc(-c2nnn(CCO)n2)c(Nc2ccc(C(F)(F)F)cc2)c1` the value was < 0.1 µM; for `CNCCCn1nnc(-c2ccccc2Nc2ccc(C(F)(F)F)cc2)n1`, “in the range around 3 µM”.
Regarding `OC1(Cn2nnc(-c3ccccc3Nc3ccc(C(F)(F)F)cc3)n2)CCCC1`, the IC50 was < 0.1 µM.
On to `FC(F)(F)c1ccc(Nc2ccccc2-c2nnn(CCOC3CCNCC3)n2)cc1`, for which the half-maximal inhibitory concentration (IC50) entry is “in the range around 0.55 µM”.
For `OC1(Cn2nnc(-c3ccccc3Nc3ccc(C(F)(F)F)cc3)n2)CCNC1` (stereo not drawn) the value was “in the range around 0.55 µM”.
In the case of `OCCn1nnc(-c2cc(Cl)ccc2Nc2ccc(C(F)(F)F)cc2)n1`, the half-inhibitory concentration (IC50) is < 0.1 µM.
For `OCCn1nnc(-c2ccccc2Nc2ccc(Cl)cc2)n1` the value was “in the range around 0.55 µM”; for `FC(F)(F)c1ccc(Nc2ccccc2-c2nnn(-c3cccnc3)n2)cc1`, “in the range around 3 µM”; for `CO[C@@H](C)[C@H](C)n1nnc(-c2ccccc2Nc2ccc(C(F)(F)F)cc2)n1`, < 0.1 µM.
As to `[O-][S+]1CC(O)(Cn2nnc(-c3ccccc3Nc3ccc(C(F)(F)F)cc3)n2)C1` (stereo not drawn), the IC50 result is “in the range around 0.55 µM”.
For `CCOC(=O)Cn1cnc(-c2ccccc2Nc2ccc(C(F)(F)F)cc2)c1`, the IC50 result is “in the range around 0.55 µM”.
For `OCCn1nnc(-c2ccc(F)cc2Nc2ccc(C(F)(F)F)cc2)n1`, the IC50 is < 0.1 µM.
Turning to `[N-]=[N+]=Nc1ccc(Nc2ccccc2-c2nnn(CCO)n2)cc1`, the IC50 result is “in the range around 0.55 µM”.
With `Cc1ccc(Nc2ccc(C(F)(F)F)cc2)c(-c2nnn(CCO)n2)c1`, the IC50 was < 0.1 µM.
As for `C[C@H](O)[C@@H](C)n1nnc(-c2ccccc2Nc2ccc(C(F)(F)F)cc2)n1`, the IC50 was < 0.1 µM.
Next, `FC(F)(F)c1ccc(Nc2ccccc2-c2nnn(CC3CCC3)n2)cc1`: “in the range around 0.55 µM”; `OCCn1nnc(-c2cc(F)ccc2Nc2ccc(C(F)(F)F)cc2)n1`: < 0.1 µM.
Take `C[C@H]([C@@H](C)O)n1nnc(-c2ccccc2Nc2ccc(C(F)(F)F)cc2)n1`: the IC50 is < 0.1 µM.
Next, `Cn1nc(-c2ccccc2Nc2ccc(C(F)(F)F)cc2)cc1CCO`: “in the range around 3 µM”.
Next, `O[C@H]1CCC[C@H]1n1nnc(-c2ccccc2Nc2ccc(C(F)(F)F)cc2)n1`: < 0.1 µM.
For `OC1(Cn2nnc(-c3ccccc3Nc3ccc(C(F)(F)F)cc3)n2)CCCNC1` (stereo not drawn), the IC50 result was “in the range around 0.55 µM”.
For the compound `O[C@@H]1CNC[C@H]1n1nnc(-c2ccccc2Nc2ccc(C(F)(F)F)cc2)n1`, the IC50 entry was “in the range around 0.55 µM”.
For `O[C@@H]1CCC[C@@H]1n1nnc(-c2ccccc2Nc2ccc(C(F)(F)F)cc2)n1` the value was “in the range around 0.55 µM”.
Regarding `OC1(Cn2nnc(-c3ccccc3Nc3ccc(C(F)(F)F)cc3)n2)CCN(c2ccccc2)C1` (stereo not drawn), the IC50 entry was “in the range around 3 µM”.
On to `FC(F)(F)c1ccc(Nc2ccccc2-c2nnn(C3CNC3)n2)cc1`, for which the IC50 result was “in the range around 3 µM”.
For `COCCn1nnc(-c2ccccc2Nc2ccc(C(F)(F)F)cc2)n1` the value was < 0.1 µM; for `OC(Cn1nnc(-c2ccccc2Nc2ccc(C(F)(F)F)cc2)n1)c1ccccc1` (stereo not drawn), “in the range around 3 µM”.
Regarding `CCC(O)Cn1nnc(-c2ccccc2Nc2ccc(C(F)(F)F)cc2)n1` (stereo not drawn), the IC50 is < 0.1 µM.
Regarding `OC1(Cn2nnc(-c3ccccc3Nc3ccc(C(F)(F)F)cc3)n2)CCCOC1` (stereo not drawn), the IC50 result was “in the range around 0.55 µM”.
Turning to `CO[C@H](C)[C@@H](C)n1nnc(-c2ccccc2Nc2ccc(C(F)(F)F)cc2)n1`, the IC50 entry was “in the range around 0.55 µM”.
Next, `OC1(Cn2nnc(-c3ccccc3Nc3ccc(C(F)(F)F)cc3)n2)CNC1`: “in the range around 0.55 µM”; `CC(=O)N1CCCC(O)(Cn2nnc(-c3ccccc3Nc3ccc(C(F)(F)F)cc3)n2)C1` (stereo not drawn): “in the range around 0.55 µM”.
Next, `NCCCn1nnc(-c2ccccc2Nc2ccc(C(F)(F)F)cc2)n1`: “in the range around 0.55 µM”.
As to `Cn1nnc(-c2ccccc2Nc2ccc(C(F)(F)F)cc2)n1`, the IC50 entry is “in the range around 0.55 µM”.
For `O=C1NCC(Cn2nnc(-c3ccccc3Nc3ccc(C(F)(F)F)cc3)n2)N1` (stereo not drawn), the IC50 result was “in the range around 0.55 µM”.
As for `CC(=O)OC1(CN2N=C(c3ccccc3Nc3ccc(C(F)(F)F)cc3)NN2)CN(C(C)=O)C1`, the IC50 entry was “in the range around 3 µM”.
For `OC1(Cn2nnc(-c3ccccc3Nc3ccc(C(F)(F)F)cc3)n2)CCC1`, the IC50 was < 0.1 µM.
As to `OCCn1nnc(-c2cccc(F)c2Nc2ccc(C(F)(F)F)cc2)n1`, the IC50 was < 0.1 µM.
As for `CC(CO)c1nc(-c2ccccc2Nc2ccc(C(F)(F)F)cc2)nn1C` (stereo not drawn), the IC50 entry was “in the range around 3 µM”.
`CO[C@@H](C)[C@@H](C)n1nnc(-c2ccccc2Nc2ccc(C(F)(F)F)cc2)n1`: the IC50 is < 0.1 µM.
In the case of `CO[C@H](C)[C@H](C)n1nnc(-c2ccccc2Nc2ccc(C(F)(F)F)cc2)n1`, the IC50 result was “in the range around 0.55 µM”.
Next, `O=C1NC(Cn2nnc(-c3ccccc3Nc3ccc(C(F)(F)F)cc3)n2)CO1` (stereo not drawn): “in the range around 0.55 µM”.
For the compound `OC1(Cn2nnc(-c3ccccc3Nc3ccc(C(F)(F)F)cc3)n2)CCOC1` (stereo not drawn), the IC50 was < 0.1 µM.
`CC(=O)N1CC(O)(Cn2nnc(-c3ccccc3Nc3ccc(C(F)(F)F)cc3)n2)C1`: the IC50 entry was “in the range around 0.55 µM”.
Take `NCCn1cnc(-c2ccccc2Nc2ccc(C(F)(F)F)cc2)n1`: the IC50 entry was “in the range around 0.55 µM”.
For the compound `CC(C)C(O)Cn1nnc(-c2ccccc2Nc2ccc(C(F)(F)F)cc2)n1` (stereo not drawn), the IC50 entry was “in the range around 0.55 µM”.
For `OC1(Cn2nnc(-c3ccccc3Nc3ccc(C(F)(F)F)cc3)n2)CCCN(c2ccccc2)C1` (stereo not drawn) the value was “in the range around 0.55 µM”.
In the case of `COC1CCCC1n1nnc(-c2ccccc2Nc2ccc(C(F)(F)F)cc2)n1` (stereo not drawn), the IC50 entry was “in the range around 0.55 µM”.
Regarding `OC1(Cn2nnc(-c3ccccc3Nc3ccc(C(F)(F)F)cc3)n2)CC1`, the IC50 was < 0.1 µM.
Turning to `CC(=O)N1CCC(O)(Cn2nnc(-c3ccccc3Nc3ccc(C(F)(F)F)cc3)n2)C1` (stereo not drawn), the half-maximal inhibitory concentration (IC50) entry is “in the range around 0.55 µM”.
As to `COc1ccc(Nc2ccc(C(F)(F)F)cc2)c(-c2nnn(CCO)n2)c1`, the half-maximal inhibitory concentration (IC50) is < 0.1 µM.
Take `OCCn1nnc(-c2ccc(Cl)cc2Nc2ccc(C(F)(F)F)cc2)n1`: the IC50 was < 0.1 µM.
As for `OCCn1nnc(-c2ccccc2Nc2ccc(Br)cc2)n1`, the IC50 result was “in the range around 0.55 µM”.
Turning to `CC(N)Cn1nnc(-c2ccccc2Nc2ccc(C(F)(F)F)cc2)n1` (stereo not drawn), the IC50 result is “in the range around 0.55 µM”.
On to `FC(F)(F)c1ccc(Nc2ccccc2-c2nnn(CC3COC3)n2)cc1`, for which the IC50 entry was “in the range around 0.55 µM”.
For the compound `FC(F)(F)c1ccc(Nc2ccccc2-c2nnn(-c3ccccn3)n2)cc1`, the IC50 entry is “in the range around 0.55 µM”.
Consider `CC(CN)n1nnc(-c2ccccc2Nc2ccc(C(F)(F)F)cc2)n1` (stereo not drawn), for which the IC50 was < 0.1 µM.
On to `NCCn1nnc(-c2ccccc2Nc2ccc(C(F)(F)F)cc2)n1`, for which the IC50 result is “in the range around 0.55 µM”.
Next, `OCCn1cnc(-c2ccccc2Nc2ccc(C(F)(F)F)cc2)c1`: “in the range around 0.55 µM”; `O=C1N[C@H](Cn2nnc(-c3ccccc3Nc3ccc(C(F)(F)F)cc3)n2)CO1`: “in the range around 0.55 µM”; `Cc1ccc(-c2nnn(CCO)n2)c(Nc2ccc(C(F)(F)F)cc2)c1`: < 0.1 µM.

As usually defined, the IC50 is the concentration that inhibits the measured activity by half.
